System: plants
Experiment: Test D pre-emergence, other plants of Tables D1 and D3
Type: in vivo
Details: preemergent, 20 DAA
Procedure, shortened: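 Damage was rated visually from 0 (none) to 100 (total), at 20 DAA for pre-emergence and 15 d for post-emergence. Plants grew from safener-treated seed in a glasshouse at 24/18° C. or 20/16° C. day/night, 65% humidity, watered twice daily.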

CN1CC(c2cc(C(F)(F)F)n(C)n2)C(C(=O)Nc2cccc(F)c2F)C1=O (racemic) [Compound 3]
damage to plant (100=total damage to plant; 0=no damage to plant), ABUTH (rate 15): 0
damage to plant (100=total damage to plant; 0=no damage to plant), ABUTH (rate 30): 0
damage to plant (100=total damage to plant; 0=no damage to plant), ABUTH (rate 60): 0
damage to plant (100=total damage to plant; 0=no damage to plant), ABUTH (rate 130): 0
damage to plant (100=total damage to plant; 0=no damage to plant), ABUTH (rate 250): 0
damage to plant (100=total damage to plant; 0=no damage to plant), ABUTH (rate 500): 0
damage to plant (100=total damage to plant; 0=no damage to plant), BIDPI (rate 15): 0
damage to plant (100=total damage to plant; 0=no damage to plant), BIDPI (rate 30): 0
damage to plant (100=total damage to plant; 0=no damage to plant), BIDPI (rate 60): 0
damage to plant (100=total damage to plant; 0=no damage to plant), BIDPI (rate 130): 0
damage to plant (100=total damage to plant; 0=no damage to plant), BIDPI (rate 250): 0
damage to plant (100=total damage to plant; 0=no damage to plant), BIDPI (rate 500): 0
damage to plant (100=total damage to plant; 0=no damage to plant), BRAPL (rate 15): 20
damage to plant (100=total damage to plant; 0=no damage to plant), BRAPL (rate 30): 50
damage to plant (100=total damage to plant; 0=no damage to plant), BRAPL (rate 60): 90
damage to plant (100=total damage to plant; 0=no damage to plant), BRAPL (rate 130): 100
damage to plant (100=total damage to plant; 0=no damage to plant), BRAPL (rate 250): 100
damage to plant (100=total damage to plant; 0=no damage to plant), BRAPL (rate 500): 100
damage to plant (100=total damage to plant; 0=no damage to plant), CYPES (rate 15): 0
damage to plant (100=total damage to plant; 0=no damage to plant), CYPES (rate 30): 0
damage to plant (100=total damage to plant; 0=no damage to plant), CYPES (rate 60): 0
damage to plant (100=total damage to plant; 0=no damage to plant), CYPES (rate 130): 0
damage to plant (100=total damage to plant; 0=no damage to plant), CYPES (rate 250): 0
damage to plant (100=total damage to plant; 0=no damage to plant), CYPES (rate 500): 10
damage to plant (100=total damage to plant; 0=no damage to plant), DIGSA (rate 15): 20
damage to plant (100=total damage to plant; 0=no damage to plant), DIGSA (rate 30): 90
damage to plant (100=total damage to plant; 0=no damage to plant), DIGSA (rate 60): 90
damage to plant (100=total damage to plant; 0=no damage to plant), DIGSA (rate 130): 100
damage to plant (100=total damage to plant; 0=no damage to plant), DIGSA (rate 250): 100
damage to plant (100=total damage to plant; 0=no damage to plant), DIGSA (rate 500): 100
damage to plant (100=total damage to plant; 0=no damage to plant), ECHCG (rate 15): 20
damage to plant (100=total damage to plant; 0=no damage to plant), ECHCG (rate 30): 90
damage to plant (100=total damage to plant; 0=no damage to plant), ECHCG (rate 60): 90
damage to plant (100=total damage to plant; 0=no damage to plant), ECHCG (rate 130): 90
damage to plant (100=total damage to plant; 0=no damage to plant), ECHCG (rate 250): 100
damage to plant (100=total damage to plant; 0=no damage to plant), ECHCG (rate 500): 100
damage to plant (100=total damage to plant; 0=no damage to plant), ELEIN (rate 15): 0
damage to plant (100=total damage to plant; 0=no damage to plant), ELEIN (rate 30): 0
damage to plant (100=total damage to plant; 0=no damage to plant), ELEIN (rate 60): 0
damage to plant (100=total damage to plant; 0=no damage to plant), ELEIN (rate 130): 0
damage to plant (100=total damage to plant; 0=no damage to plant), ELEIN (rate 250): 0
damage to plant (100=total damage to plant; 0=no damage to plant), ELEIN (rate 500): 0
damage to plant (100=total damage to plant; 0=no damage to plant), EPHHL (rate 15): 0
damage to plant (100=total damage to plant; 0=no damage to plant), EPHHL (rate 30): 0
damage to plant (100=total damage to plant; 0=no damage to plant), EPHHL (rate 60): 0
damage to plant (100=total damage to plant; 0=no damage to plant), EPHHL (rate 130): 0
damage to plant (100=total damage to plant; 0=no damage to plant), EPHHL (rate 250): 10
damage to plant (100=total damage to plant; 0=no damage to plant), EPHHL (rate 500): 10
damage to plant (100=total damage to plant; 0=no damage to plant), GLXMA (rate 15): 0
damage to plant (100=total damage to plant; 0=no damage to plant), GLXMA (rate 30): 0
damage to plant (100=total damage to plant; 0=no damage to plant), GLXMA (rate 60): 0
damage to plant (100=total damage to plant; 0=no damage to plant), GLXMA (rate 130): 0
damage to plant (100=total damage to plant; 0=no damage to plant), GLXMA (rate 250): 0
damage to plant (100=total damage to plant; 0=no damage to plant), GLXMA (rate 500): 10
damage to plant (100=total damage to plant; 0=no damage to plant), IPOHE (rate 15): 0
damage to plant (100=total damage to plant; 0=no damage to plant), IPOHE (rate 30): 0
damage to plant (100=total damage to plant; 0=no damage to plant), IPOHE (rate 60): 0
damage to plant (100=total damage to plant; 0=no damage to plant), IPOHE (rate 130): 0
damage to plant (100=total damage to plant; 0=no damage to plant), IPOHE (rate 250): 0
damage to plant (100=total damage to plant; 0=no damage to plant), IPOHE (rate 500): 0
damage to plant (100=total damage to plant; 0=no damage to plant), ORYSA (rate 15): 0
damage to plant (100=total damage to plant; 0=no damage to plant), ORYSA (rate 30): 0
damage to plant (100=total damage to plant; 0=no damage to plant), ORYSA (rate 60): 0
damage to plant (100=total damage to plant; 0=no damage to plant), ORYSA (rate 130): 0
damage to plant (100=total damage to plant; 0=no damage to plant), ORYSA (rate 250): 0
damage to plant (100=total damage to plant; 0=no damage to plant), ORYSA (rate 500): 0
damage to plant (100=total damage to plant; 0=no damage to plant), PANMI (rate 15): 0
damage to plant (100=total damage to plant; 0=no damage to plant), PANMI (rate 30): 0
damage to plant (100=total damage to plant; 0=no damage to plant), PANMI (rate 60): 0
damage to plant (100=total damage to plant; 0=no damage to plant), PANMI (rate 130): 0
damage to plant (100=total damage to plant; 0=no damage to plant), PANMI (rate 250): 0
damage to plant (100=total damage to plant; 0=no damage to plant), PANMI (rate 500): 0
damage to plant (100=total damage to plant; 0=no damage to plant), SETFA (rate 15): 0
damage to plant (100=total damage to plant; 0=no damage to plant), SETFA (rate 30): 30
damage to plant (100=total damage to plant; 0=no damage to plant), SETFA (rate 60): 80
damage to plant (100=total damage to plant; 0=no damage to plant), SETFA (rate 130): 90
damage to plant (100=total damage to plant; 0=no damage to plant), SETFA (rate 250): 90
damage to plant (100=total damage to plant; 0=no damage to plant), SETFA (rate 500): 90
damage to plant (100=total damage to plant; 0=no damage to plant), SIDSP (rate 15): 0
damage to plant (100=total damage to plant; 0=no damage to plant), SIDSP (rate 30): 0
damage to plant (100=total damage to plant; 0=no damage to plant), SIDSP (rate 130): 0
damage to plant (100=total damage to plant; 0=no damage to plant), SIDSP (rate 250): 60
damage to plant (100=total damage to plant; 0=no damage to plant), SIDSP (rate 500): 60
damage to plant (100=total damage to plant; 0=no damage to plant), SORVU (rate 15): 0
damage to plant (100=total damage to plant; 0=no damage to plant), SORVU (rate 30): 0
damage to plant (100=total damage to plant; 0=no damage to plant), SORVU (rate 60): 0
damage to plant (100=total damage to plant; 0=no damage to plant), SORVU (rate 130): 0
damage to plant (100=total damage to plant; 0=no damage to plant), SORVU (rate 250): 0
damage to plant (100=total damage to plant; 0=no damage to plant), SORVU (rate 500): 0

— patent publication US20220281848A1, “PYRAZOLE-SUBSTITUTED PYRROLIDINONES AS HERBICIDES” (FMC Corporation, priority 2019, published 2022)
